Structures are written as SMILES.

We go through 21 compounds from US20090227600A1, “4-(PYRAZINE-2-YL) -PYRROLIDINE -2-CARBOXYLIC ACID COMPOUNDS AND DERIVATIVES THEREOF AS HEPATITIS C VIRUS INHIBITORS” (priority 2004, published 2009).

In this test the target is T1, HCV RNA Polymerase, recombinant NS5B with C-terminal 21 amino acid deletion, genotype 1a strain H77 (Hepatitis C virus genotype 1a, UniProt P27958).
T1 construct: fused on or other part: C-terminal 6His-tag
T1 sequence (P27958 2421-3011 V2599I, form open): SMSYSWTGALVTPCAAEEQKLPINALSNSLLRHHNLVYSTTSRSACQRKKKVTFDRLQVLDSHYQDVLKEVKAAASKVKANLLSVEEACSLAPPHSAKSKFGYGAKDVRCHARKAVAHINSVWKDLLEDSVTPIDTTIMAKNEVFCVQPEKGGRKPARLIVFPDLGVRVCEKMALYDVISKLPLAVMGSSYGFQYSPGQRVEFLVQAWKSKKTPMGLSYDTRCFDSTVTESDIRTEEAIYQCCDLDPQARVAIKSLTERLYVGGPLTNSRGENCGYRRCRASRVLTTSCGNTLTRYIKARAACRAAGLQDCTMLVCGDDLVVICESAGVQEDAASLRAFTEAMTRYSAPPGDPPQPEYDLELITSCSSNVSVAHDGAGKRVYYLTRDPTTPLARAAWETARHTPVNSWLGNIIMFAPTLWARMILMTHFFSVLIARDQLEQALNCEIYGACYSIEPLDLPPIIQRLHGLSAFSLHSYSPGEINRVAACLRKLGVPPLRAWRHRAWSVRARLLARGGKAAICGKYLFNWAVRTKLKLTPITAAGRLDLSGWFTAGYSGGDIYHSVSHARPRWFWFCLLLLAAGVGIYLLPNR
The test can be described thus: In vitro HCV RNA-dependent RNA polymerase inhibition assay, genotype 1a C-terminally truncated (delta21) enzyme. Type of test: biochemical, HCV genotype 1a. The following applies: genotype 1a delta21 NS5B enzyme; read-out: IC50 in delta-21 1a enzyme inhibition assay. The text has this:
Incorporation of [^33P]-GMP into RNA was followed by absorption of the biotin labelled RNA polymer by streptavidin containing SPA beads. A synthetic template consisting of biotinylated 13mer-oligoG hybridised to polyrC was used as a homopolymer substrate.
a) Genotype 1a C-Terminally Truncated (delta21) Enzyme
HCV RNA Polymerase [Recombinant NS5B with C-terminal 21 amino acid deletion and C-terminal 6His-tag (Ferrari et al. J. Virol, 73(2), 1999, 1649. ‘Characterization of soluble hepatitis C virus RNA-dependent RNA polymerase expressed in Escherichia coli.’) expressed in E. coli and purified to homogeneity] was added to 25 nM final concentration. Polymerase of genotype 1a was from strain H77 (Yanagi, M., Purcell, R. H., Emerson, S. U. & Bukh, J. (1997), Proceedings of the National Academy of Sciences, USA 94, 8738-8743) containing a sequence change from valine to isoleucine at position 180.
Reaction Conditions were 25 nM enzyme, 1.5 μg/ml oligo-rG13/poly-rC and 0.2 μCi α-^33P-GTP in 0.5 μM GTP (20 Ci/mMol), 20 mM Tris pH 7.5, 23 mM NaCl, 3 mM DTT, 5 mM MgCl2, 1 mM MnCl2.
Enzyme was diluted to 500 nM concentration in 20 mM Tris-HCl, pH 7.5, 25 mM NaCl and 3 mM DTT.
4× concentrated assay buffer mix was prepared using 1M Tris-HCl, pH7.5 (1 mL), 5M NaCl (0.25 mL), 1M DTT (0.12 mL) and Water (8.63 mL), Total 10 mL.
2× concentrated first reagent was prepared using 4× concentrated assay buffer mix (5 μL), 40 u/μL RNasin (0.1 μL), 20 μg/mL polyrC/biotinylated-oligoG (1.6 μL), 500 nM enzyme (1 μL) and Water (2.3 μL), Total 10 μl/well.
2× concentrated second reagent was prepared using 1M MgCl2 (0.1 μL), 1M MnCl2 (0.02 μL), 25 μM GTP (0.4 μL), α-[^33P]-GTP (10 μCi/μL, 0.02 μL) and water (9.5 μL), Total 10 μL/well.
The assay was set up using compound (1 μL in 100% DMSO), first reagent (10 μL), and second reagent (10 μL), Total 21 μL.
The reaction was performed in a U-bottomed, white, 96-well plate. The reaction was mixed on a plate-shaker, after addition of the Enzyme, and incubated for 1 h at 22° C. After this time, the reaction was stopped by addition of 60 μL 1.5 mg/ml streptavidin SPA beads (Amersham) in 0.1 M EDTA in PBS. The beads were incubated with the reaction mixture for 1 h at 22° C. after which 100 μL 0.1 M EDTA in PBS was added. The plate was sealed, mixed centrifuged and incorporated radioactivity determined by counting in a Trilux (Wallac) or Topcount (Packard) Scintillation Counter.
After subtraction of background levels without enzyme, any reduction in the amount of radioactivity incorporated in the presence of a compound, compared to that in the absence, was taken as a measure of the level of inhibition. Ten concentrations of compounds were tested in three- or fivefold dilutions. From the counts per minute, percentage of inhibition at highest concentration tested or IC50s for the compounds were calculated using GraFit 3, GraFit 4 or GraFit 5 (Erithacus Software Ltd.) software packages or a data evaluation macro for Excel based on XLFit Software (IDBS).
For `COc1cc(C(=O)N2[C@@H](c3nccs3)[C@@H](c3cnccn3)C[C@@]2(CC(C)C)C(=O)O)ccc1C(C)(C)C` (racemic) [Compound A, rel-(2S,4S,5R)-2-Isobutyl-1-(4-tert-butyl-3-methoxybenzoyl)-4-(pyrazin-2-yl)-5-(1,3-thiazol-2-yl)pyrrolidine-2-carboxylic acid, reference compound], the IC50 was greater than 1 µM. Take `COc1cc(C(=O)N2[C@@H](c3nccs3)[C@@H](c3cnccn3)C[C@@]2(Cc2ccccn2)C(=O)O)ccc1C(C)(C)C` (racemic) [Compound C, rel-(2R,4S,5R)-1-(4-tert-Butyl-3-methoxybenzoyl)-2-(pyridin-2-ylmethyl)-4-(pyrazin-2-yl)-5-(1,3-thiazol-2-yl)pyrrolidine-2-carboxylic acid, reference compound]: the IC50 was in the range of 0.15 to 1 µM. On to `COc1cc(C(=O)N2[C@@H](c3nccs3)[C@@H](c3cnccn3)C[C@@]2(Cc2c[nH]cn2)C(=O)O)ccc1C(C)(C)C` (racemic) [Compound D, rel-(2R,4S,5R)-1-(4-tert-Butyl-3-methoxybenzoyl)-2-(1H-imidazol-4-yl-methyl)-4-(pyrazin-2-yl)-5-(1,3-thiazol-2-yl)-pyrrolidine-2-carboxylic acid, reference compound], for which the IC50 was greater than 1 µM. Regarding `COc1cc(C(=O)N2[C@@H](c3cncs3)[C@@H](c3cnccn3)C[C@@]2(CCSC)C(=O)O)ccc1C(C)(C)C` (racemic) [Compound E, rel-(2R,4S,5R)-1-(4-tert-Butyl-3-methoxybenzoyl)-2-(2-(methylthio)ethyl)-4-(pyrazin-2-yl)-5-(1,3-thiazol-5-yl)-pyrrolidine-2-carboxylic acid, reference compound], the IC50 is greater than 1 µM. As to `COc1cc(C(=O)N2[C@@H](c3nccs3)[C@@H](c3cnccn3)C[C@@]2(CCS(C)(=O)=O)C(=O)O)ccc1C(C)(C)C` (racemic) [Compound F, rel-(2R,4S,5R)-1-(4-tert-Butyl-3-methoxybenzoyl)-2-(2-(methylsulphonyl)ethyl)-4-pyrazin-2-yl-5-(1,3-thiazol-2-yl)-pyrrolidine-2-carboxylic acid, reference compound], the IC50 was greater than 1 µM. Turning to `COc1cc(C(=O)N2[C@@H](c3nccs3)[C@@H](c3cnccn3)C[C@@]2(Cc2ccccc2)C(=O)O)ccc1C(C)(C)C` (racemic) [Compound G, rel-(2R,4S,5R)-1-(4-tert-Butyl-3-methoxybenzoyl)-2-(phenylmethyl)-4-(pyrazin-2-yl)-5-(1,3-thiazol-2-yl)pyrrolidine-2-carboxylic acid, reference compound], the IC50 was greater than 1 µM. Then `COc1cc(C(=O)N2[C@@H](c3nccs3)[C@@H](c3cnccn3)C[C@@]2(Cc2cscn2)C(=O)O)ccc1C(C)(C)C` (racemic) [Example 1, rel-(2R,4S,5R)-1-(3-Methoxy-4-tert-butylbenzoyl)-4-(pyrazin-2-yl)-2-(1,3-thiazol-4-ylmethyl)-5-(1,3-thiazol-2-yl)pyrrolidine-2-carboxylic acid], with less than 0.15 µM; and `COc1cc(C(=O)N2[C@@H](c3nccs3)[C@@H](c3cnccn3)C[C@@]2(Cc2nccs2)C(=O)O)ccc1C(C)(C)C` (racemic) [Example 3, rel-(2R,4S,5R)-1-(3-Methoxy-4-tert-butylbenzoyl)-4-(pyrazin-2-yl)-2-(1,3-thiazol-2-ylmethyl)-5-(1,3-thiazol-2-yl)pyrrolidine-2-carboxylic acid], with less than 0.15 µM. In the case of `COc1cc(C(=O)N2[C@@H](c3ncc(C)s3)[C@@H](c3cnccn3)C[C@@]2(Cc2ccsn2)C(=O)O)ccc1C(C)(C)C` (racemic) [Example 5, rel-(2R,4S,5R)-1-(3-Methoxy-4-tert-butylbenzoyl)-5-(5-methyl-1,3-thiazol-2-yl)-4-(pyrazin-2-yl)-2-(1,2-thiazol-3-ylmethyl)pyrrolidine-2-carboxylic acid], the IC50 is less than 0.15 µM. In the case of `COc1cc(C(=O)N2[C@@H](c3nccs3)[C@@H](c3cnccn3)C[C@@]2(Cc2ccsn2)C(=O)O)ccc1C(C)(C)C` (racemic) [Example 7, rel-(2R,4S,5R)-1-(3-Methoxy-4-tert-butylbenzoyl)-4-(pyrazin-2-yl)-2-(1,2-thiazol-3-ylmethyl)-5-(1,3-thiazol-2-yl)pyrrolidine-2-carboxylic acid], the IC50 was less than 0.15 µM. Then `COc1cc(C(=O)N2[C@@H](c3ncc(C)s3)[C@@H](c3cnccn3)C[C@@]2(Cn2cccn2)C(=O)O)ccc1C(C)(C)C` (racemic) [Example 9, rel-(2R,4S,5R)-1-(3-Methoxy-4-tert-butylbenzoyl)-5-(5-methyl-1,3-thiazol-2-yl)-4-(pyrazin-2-yl)-2-(1H-pyrazol-1-ylmethyl)pyrrolidine-2-carboxylic acid], with less than 0.15 µM; and `COc1cc(C(=O)N2[C@@H](c3nccs3)[C@@H](c3cnccn3)C[C@@]2(Cn2cccn2)C(=O)O)ccc1C(C)(C)C` (racemic) [Example 11, rel-(2R,4S,5R)-1-(3-Methoxy-4-tert-butylbenzoyl)-4-(pyrazin-2-yl)-2-(1H-pyrazol-1-ylmethyl)-5-(1,3-thiazol-2-yl)pyrrolidine-2-carboxylic acid], with less than 0.15 µM. Next, `COc1cc(C(=O)N2[C@@H](c3ncc(C)s3)[C@@H](c3cnccn3)C[C@@]2(Cc2nccs2)C(=O)O)ccc1C(C)(C)C` (racemic) [Example 13, rel-(2R,4S,5R)-1-(3-Methoxy-4-tert-butylbenzoyl)-5-(5-methyl-1,3-thiazol-2-yl)-4-(pyrazin-2-yl)-2-(1,3-thiazol-2-ylmethyl)pyrrolidine-2-carboxylic acid]: less than 0.15 µM. Then `COc1cc(C(=O)N2[C@@H](c3ncc(C)s3)[C@@H](c3cnccn3)C[C@@]2(Cc2cscn2)C(=O)O)ccc1C(C)(C)C` (racemic) [Example 15, rel-(2R,4S,5R)-1-(3-Methoxy-4-tert-butylbenzoyl)-5-(5-methyl-1,3-thiazol-2-yl)-4-(pyrazin-2-yl)-2-(1,3-thiazol-4-ylmethyl)pyrrolidine-2-carboxylic acid], with less than 0.15 µM; and `COc1cc(C(=O)N2[C@@H](c3nccs3)[C@@H](c3cnccn3)C[C@@]2(CC(C)C)C(=O)O)ccc1C(C)(C)C` (single isomer, unassigned; enantiomer a) [Compound B, reference compound], with greater than 1 µM. On to `COc1cc(C(=O)N2[C@@H](c3nccs3)[C@@H](c3cnccn3)C[C@@]2(Cc2cscn2)C(=O)O)ccc1C(C)(C)C` (single isomer, unassigned; enantiomer a) [Example 2], for which the IC50 was less than 0.15 µM. Take `COc1cc(C(=O)N2[C@@H](c3nccs3)[C@@H](c3cnccn3)C[C@@]2(Cc2nccs2)C(=O)O)ccc1C(C)(C)C` (single isomer, unassigned; enantiomer a) [Example 4]: the IC50 is less than 0.15 µM. Then `COc1cc(C(=O)N2[C@@H](c3ncc(C)s3)[C@@H](c3cnccn3)C[C@@]2(Cc2ccsn2)C(=O)O)ccc1C(C)(C)C` (single isomer, unassigned; enantiomer a) [Example 6], with less than 0.15 µM; and `COc1cc(C(=O)N2[C@@H](c3nccs3)[C@@H](c3cnccn3)C[C@@]2(Cc2ccsn2)C(=O)O)ccc1C(C)(C)C` (single isomer, unassigned; enantiomer a) [Example 8], with less than 0.15 µM.

Consider `COc1cc(C(=O)N2[C@@H](c3ncc(C)s3)[C@@H](c3cnccn3)C[C@@]2(Cn2cccn2)C(=O)O)ccc1C(C)(C)C` (single isomer, unassigned; enantiomer a) [Example 10], for which the IC50 is less than 0.15 µM. For `COc1cc(C(=O)N2[C@@H](c3nccs3)[C@@H](c3cnccn3)C[C@@]2(Cn2cccn2)C(=O)O)ccc1C(C)(C)C` (single isomer, unassigned; enantiomer a) [Example 12], the IC50 is less than 0.15 µM.
